Patent US20110082204A1, “N-alkylcarbonyl-amino acid ester and N-alkylcarbonyl-amino lactone compounds and their use” (priority 2006, published 2011)

What was measured:
philtrum skin = test: Cooling sensation after ointment applied to philtrum skin; type: in vivo, human; conditions: for Duration of cooling, Philtrum Skin: 5 mg/ml in Aquaphor ointment on philtrum skin; for duration of cooling (FIG. 1): 40 to 70 mg of 1% wt/vol (10 mg/ml) ointment on skin above the upper lips; for duration of action / onset on philtrum skin: Study 1
Source text: A reliable place for topical application is the skin above the upper lip (above the vermilion border of the lips), on the philtrum, lateral to the philtrum until the nasolabial folds, and on the lower nostrils (subnasale). This part of the face is known to be densely innervated with cold receptors, second only to the surfaces of the eyeball and anogenitalia.
The intensity of the subjective skin sensation is rated as 0, 1, 2 or 3 with: 0 as no change; 1 as slight coolness, cold, or tingling; 2 as clear-cut signal of coolness, cold, or tingling; and 3 as robust cooling or cold. The intervals for recording sensations are 5 to 10 minutes, until two successive zeroes are obtained. The results (shown in FIG. 1) are averaged values of 4 to 6 separate trials in the same individual. The data are plotted using SigmaPlot® (Systat Software, Point Richmond Calif.) and a smoothing function with a negative exponential was used for analysis and statistical fit of the results. Confirmatory trials of cooling action of the long-acting NACE compounds were obtained in 2 to 4 individuals but not quantified for some because of the large number of chemicals that were evaluated
(§1) The onset of drug action is taken as the time to reach 2 units of coolness intensity, and offset of drug action is the time when coolness intensity drops below 2, after previously surpassing 2 units. The duration of cooling action is defined as the offset time minus the onset time. […] The quality of the sensation is noted, for example, as pure refreshing coolness, or if the sensation is accompanied by irritation (stinging or burning). The quality of the sensation is not rated for intensity.
For bioassay on the skin, approximately 30 mg was stirred and dissolved in 3 g of warm liquid Aquaphor® ointment to a yield 5 to 10 mg/ml (0.5% to 1.0 wt/vol) ointment. After cooling, 40 to 70 mg of the solid ointment was placed on the tip of a plastic stick and applied to the skin above the upper lip, on the philtrum, and lateral to the philtrum, up to the nasolabial folds, of test subjects and the onset and duration of cooling sensations noted.
The intensity of the subjective skin sensation was rated as 0, 1, 2 or 3 with: 0 as no change; 1 as slight coolness, cold, or tingling; 2 as clear signal of coolness, cold, or tingling; and 3 as robust cooling or cold. The intervals for recording sensations were 5 to 10 minutes, until two successive zeroes were obtained. The results (shown in FIG. 1) are averaged values of 4 to 6 separate trials in the same individual. The data are plotted using SigmaPlot® (Systat Software, Point Richmond, Calif., USA) and a smoothing function with a negative exponential was used for analysis and statistical fit of the results.
as §1, with “was” for “is”, “was also noted: such” for “is noted, for example,”
For the results in FIG. 1, the test compounds were singly applied to the skin above the upper lips at a 40 to 70 mg dose of a 1% wt/vol (10 mg/ml) ointment. Subsequently, for the results shown in Table 3, the test dose on the philtrum was reduced to a 0.5% wt/vol (5 mg/ml) ointment. The reason for choosing a lower dose was to increase the number of trials per individual and to have a reduced chance of substances accumulating in the skin.

eyelids/ocular surface = test: Cooling after wiping closed eyelids with a towelette; type: in vivo, human; conditions: eye wipes, 1 mg/ml in 5%-95% v/v ethanol-distilled water
Method: A second method of testing was to take a towelette saturated with a test solution of the cooling agent and to wipe the towelette over the dosed eyelids. The presence or absence of cooling (or irritanty, if applicable) sensations was then recorded at 10 minute intervals until the cessation of coolness in two successive intervals.
For testing of cooling compounds delivered to the eyelids with a towelette, the following procedures were used in the experiments of Table 3 and in Study 5 and 6. Three ml of liquid suspension or solution in distilled water was added to a 0.4 g cotton rectangle (50 mm×60 mm) (CS-being, Daisan Cotton, Japan) and individually sealed with a vaccuum apparatus (Foodsaver®, Jarden Corp.). Samples were stored in the freezer or refrigerator and thawed to room temperature before use. Wiping with the cotton pad delivers 40 to 45 μl of liquid composition to the eyelids ([…] to 22 μl per eye). So, if the concentration of the test substance was 1 mg/ml, the dose delivered to both eyes is a total of ˜40 to […], or ˜20 μg per eye. This method allows a reliable delivery of test substances because the dissolved or suspended particles in solution are evenly dispersed on the cotton pad in an excess volume of liquid. The presence or absence of cooling sensations was noted as being present or absent at 5 to 10 min intervals until no coolness was noticeable in two successive test intervals. Only the duration of cooling on the ocular surface was recorded, without an attempt to quantify the intensity of the sensation.

[1] = Log P of tested compounds; type: physicochemical
[2] = system: dorsal surface of the tongue; conditions: threshold amount producing cooling on tongue of human volunteers; values from Watson US 04178459; cited from earlier work
periorbital skin = test: Ointment applied to periorbital skin: coolness, eye irritancy, alerting (Study 3); type: in vivo, human; conditions: ointment on periorbital area; for skin coolness and refreshment: conditions similar to Study 3
Source text: The ointment was also applied to the periorbital skin (upper and lower eyelids and on skin adjacent to the lateral canthus) for tests of irritancy near the eyes, and the subject is asked if irritation is present or absent. The intensity of the eye sensation is not rated.
For tests of irritancy near the eyes in Study 3 and 4, the ointment was applied to the periorbital skin (upper and lower eyelids and on skin adjacent to the lateral canthus), and the subject asked if irritation is present or absent. The intensity of the eye sensation is not rated, but just noted as being present or absent
A 1% preparation of 2-isopropyl-5-methyl-cyclohexanecarbonyl D-alanine methyl ester in Aquaphor® ointment was applied bilaterally to the periorbital area of four individuals. […] This experiment was then repeated three days later in the evening with the same individuals whose occupations required daylong activities before a computer screen.

| SMILES | Log P [1] | Threshold tongue [2] [µg] | other results |
| --- | --- | --- | --- |
| CCOC(=O)CNC(=O)[C@@H]1C[C@H](C)CC[C@H]1C(C)C [Gly Et Ester (WS-5), reference compound] | 2.9 | 0.2 | Duration of cooling, Philtrum Skin (philtrum skin): 24 min; duration of cooling (FIG. 1) (philtrum skin): 0.5 h; duration of action / onset on philtrum skin (philtrum skin): short duration of action (less than 1 hour) on the philtrum skin or slow onset (more than 5 minutes); Duration of cooling, Eyelids/Ocular Surface (eyelids/ocular surface): 15 min |
| COc1ccc(NC(=O)[C@@H]2C[C@H](C)CC[C@H]2C(C)C)cc1 [WS-12, reference compound] | 5.3 | 0.2 | duration of action / onset on philtrum skin (philtrum skin): short duration of action (less than 1 hour) on the philtrum skin or slow onset (more than 5 minutes) |
| CCCOC(=O)CNC(=O)[C@@H]1C[C@H](C)CC[C@H]1C(C)C [Gly nPr Ester] | 3.4 | 0.3 | Duration of cooling, Philtrum Skin (philtrum skin): 42 min; Duration of cooling, Eyelids/Ocular Surface (eyelids/ocular surface): 54 min |
| CC(C)[C@@H]1CC[C@@H](C)C[C@H]1C(=O)N[C@H]1CCOC1=O [L-Hsl] | 2.5 |  |  |
| COC(=O)CCC(NC(=O)C1CC(C)CCC1C(C)C)C(=O)OC (centres unmarked) [Glu(OMe) Me Ester] | 2.2 |  |  |
| COC(=O)CNC(=O)C1CC(C)CCC1C(C)C (centres unmarked) [Gly Me Ester (WS-31), reference compound] | 2.4 | 0.6 | duration of action / onset on philtrum skin (philtrum skin): short duration of action (less than 1 hour) on the philtrum skin or slow onset (more than 5 minutes) |
| CCOC(=O)[C@H](C)NC(=O)[C@@H]1C[C@H](C)CC[C@H]1C(C)C [L-Ala Et Ester] | 3.1 | 0.4 | Duration of cooling, Philtrum Skin (philtrum skin): 34 min; Duration of cooling, Eyelids/Ocular Surface (eyelids/ocular surface): 0 min |
| COC(=O)[C@H](CC(C)C)NC(=O)[C@@H]1C[C@H](C)CC[C@H]1C(C)C [L-Leu Me Ester] | 4.3 |  |  |
| CCCCOC(=O)[C@@H](C)NC(=O)[C@@H]1C[C@H](C)CC[C@H]1C(C)C [D-Ala nBu Ester] | 4.4 |  | Duration of cooling, Philtrum Skin (philtrum skin): 80 min; Duration of cooling, Eyelids/Ocular Surface (eyelids/ocular surface): 40 min |
| CC(C)[C@@H]1CC[C@@H](C)C[C@H]1C(=O)NC(C)(C)C [WS-14] | 4.5 | 0.4 | irritation of skin / eye surfaces (periorbital skin): produced significant skin and eye irritation; skin coolness and refreshment (periorbital skin): did not enhance skin coolness or provide satisfactory refreshment |
| CCOC(=O)[C@H](CO)NC(=O)[C@@H]1C[C@H](C)CC[C@H]1C(C)C [L-Ser Et Ester] | 1.8 |  |  |
| COC(=O)[C@H](NC(=O)[C@@H]1C[C@H](C)CC[C@H]1C(C)C)C(C)C [D-Val Me Ester] | 4.2 |  |  |
| CCOC(=O)CCNC(=O)[C@@H]1C[C@H](C)CC[C@H]1C(C)C [β-Ala Et Ester] | 3.1 | 1.5 |  |
| COC(=O)[C@@H](C)N(C)C(=O)[C@@H]1C[C@H](C)CC[C@H]1C(C)C [D-NMe Ala Ester] |  |  | Duration of cooling, Philtrum Skin (philtrum skin): 0 min; Duration of cooling, Eyelids/Ocular Surface (eyelids/ocular surface): 0 min |
| CCNC(=O)C1CC(C)CCC1C(C)C (centres unmarked) [WS-3, reference compound] | 3.7 | 0.2 | duration of cooling (FIG. 1) (philtrum skin): 0.3 h; duration of action / onset on philtrum skin (philtrum skin): short duration of action (less than 1 hour) on the philtrum skin or slow onset (more than 5 minutes); irritation of skin / eye surfaces (periorbital skin): produced significant skin and eye irritation; skin coolness and refreshment (periorbital skin): did not enhance skin coolness or provide satisfactory refreshment |
| CCCCOC(=O)CNC(=O)[C@@H]1C[C@H](C)CC[C@H]1C(C)C [Gly nBu Ester] | 4.0 |  | Duration of cooling, Philtrum Skin (philtrum skin): 38 min; Duration of cooling, Eyelids/Ocular Surface (eyelids/ocular surface): 35 min |
| COC(=O)[C@@H]1CCCN1C(=O)[C@@H]1C[C@H](C)CC[C@H]1C(C)C [L-Pro Me Ester] | 3.3 |  |  |
| CCOC(=O)CN(C)C(=O)[C@@H]1C[C@H](C)CC[C@H]1C(C)C [Sar Et Ester] | 2.9 | 0.8 |  |
| CCCOC(=O)[C@@H](C)NC(=O)[C@@H]1C[C@H](C)CC[C@H]1C(C)C [D-Ala nPr Ester] | 3.8 |  | Duration of cooling, Philtrum Skin (philtrum skin): 108 min; Duration of cooling, Eyelids/Ocular Surface (eyelids/ocular surface): 65 min |
| CC(C)[C@@H]1CC[C@@H](C)C[C@H]1C(=O)N[C@@H]1CCOC1=O [D-Hsl] | 2.5 |  | duration of cooling (FIG. 1) (philtrum skin): 1.3 h |
| COC(=O)[C@@H](NC(=O)[C@@H]1C[C@H](C)CC[C@H]1C(C)C)C(C)C [L-Val Me Ester] | 4.2 |  |  |
| CNC(=O)C(C)(C(C)C)C(C)C [WS-23, N-2,3-trimethyl-2-isopropylbutanamide] |  |  | duration of action / onset on philtrum skin (philtrum skin): short duration of action (less than 1 hour) on the philtrum skin or slow onset (more than 5 minutes); irritation of skin / eye surfaces (periorbital skin): produced significant skin and eye irritation; skin coolness and refreshment (periorbital skin): did not enhance skin coolness or provide satisfactory refreshment |
| COC(=O)[C@H](C)NC(=O)[C@@H]1C[C@H](C)CC[C@H]1C(C)C [L-Ala Me Ester] | 2.8 | 0.6 |  |
| CC(C)[C@@H]1CC[C@@H](C)C[C@H]1C(=O)N[C@@H](CCCCNC(=O)OCc1ccccc1)C(=O)OC(C)(C)C [L-Lys(Z) t-Bu Ester] | 5.9 |  |  |
| CC1CCC(C(C)C)C(C(=O)NC2CCOC2=O)C1 (mixture of isomers) [racemic Hsl] | 2.5 |  |  |
| CCOC(=O)C(C)N(C)C(=O)C1CC(C)CCC1C(C)C [N—Me-D-Ala Et Ester] | 3.2 |  |  |
